Source: patent US4442044A, “Process for preparing monoesters and diesters of N-alkyl substituted amino methyl phosphonic acid” (priority 1983, dated 1984)

How the values were obtained:
Assay in all cases: post-emergent herbicidal activity, greenhouse
Assay type in all cases: in vivo
Details in all cases: Table I
[1] = system: Yellow Nutsedge
Text: (§1) A good grade of top soil is placed in aluminum pans having holes in the bottom and compacted to a depth of 0.95 to 1.27 cm. from the top of the pan. A predetermined number of seeds of each of several dicotyledonous and monocotyledonous annual plant species and/or vegetative propagules for the perennial plant species were placed on the soil and pressed into the soil surface. The seeds and/or vegetative propagules are covered with soil and leveled. The pans are then placed on a sand bench in the greenhouse and watered from below as needed. After the plants reach the desired age (two to three weeks), each pan except for the control pans is removed individually to a spraying chamber and sprayed by means of an atomizer operating at a positive air pressure of approximately 1.46 kg/cm^2 absolute. The atomizer contains 6 ml. of a solution or suspension of the chemical. In that 6 ml., is an amount of a cyclohexanone emulsifying agent mixture to give a spray solution or suspension which contains about 0.4% by weight of the emulsifier. The spray solution or suspension contains a sufficient amount of the candidate chemical in order to give application rates corresponding to those set forth in the tables. The spray solution is prepared by taking an aliquot of a 1.0% by weight stock solution or suspension of the candidate chemical in an organic solvent such as acetone or tetrahydrofuran or in water. The emulsifying agent employed is a mixture comprising 35 weight percent butylamine dodecylbenzene sulfonate and 65 weight percent of a tall oil ethylene oxide condensate having about 11 moles of ethylene oxide per mole of tall oil. The pans are returned to the greenhouse and watered as before and the injury to the plants as compared to the control is observed at approximately two and four weeks as indicated in the tables under WAT and the results recorded. In some instances, the two-week observations are omitted.
(§2) The post-emergent herbicidal activity index used in Tables I and II is as follows: […]

[2] = system: Smartweed
Text: as §1, §2

[3] = system: Barnyardgrass
Text: as §1, §2

[4] = system: Canada Thistle
Text: as §1, §2

[5] = system: Lambsquarters
Text: as §1, §2

[6] = system: Quackgrass
Text: as §1, §2

[7] = system: Velvetleaf
Text: as §1, §2

[8] = system: Downy Brome
Text: as §1, §2

[9] = system: Cocklebur
Text: as §1, §2

[10] = system: Morningglory
Text: as §1, §2

[11] = system: Johnsongrass
Text: as §1, §2

| Structure (SMILES) | post-emergent herbicidal activity index ([1]; 4 WAT, 5.6 kg/h) | post-emergent herbicidal activity index ([1]; 4 WAT, 11.2 kg/h) | post-emergent herbicidal activity index ([2]; 4 WAT, 5.6 kg/h) | post-emergent herbicidal activity index ([2]; 4 WAT, 11.2 kg/h) | post-emergent herbicidal activity index ([3]; 4 WAT, 5.6 kg/h) | post-emergent herbicidal activity index ([3]; 4 WAT, 11.2 kg/h) | post-emergent herbicidal activity index ([4]; 4 WAT, 5.6 kg/h) | post-emergent herbicidal activity index ([4]; 4 WAT, 11.2 kg/h) | post-emergent herbicidal activity index ([5]; 4 WAT, 5.6 kg/h) | post-emergent herbicidal activity index ([5]; 4 WAT, 11.2 kg/h) | post-emergent herbicidal activity index ([6]; 4 WAT, 5.6 kg/h) | post-emergent herbicidal activity index ([6]; 4 WAT, 11.2 kg/h) | post-emergent herbicidal activity index ([7]; 4 WAT, 5.6 kg/h) | post-emergent herbicidal activity index ([7]; 4 WAT, 11.2 kg/h) | post-emergent herbicidal activity index ([8]; 4 WAT, 5.6 kg/h) | post-emergent herbicidal activity index ([8]; 4 WAT, 11.2 kg/h) | post-emergent herbicidal activity index ([9]; 4 WAT, 5.6 kg/h) | post-emergent herbicidal activity index ([9]; 4 WAT, 11.2 kg/h) | post-emergent herbicidal activity index ([10]; 4 WAT, 11.2 kg/h) | post-emergent herbicidal activity index ([11]; 4 WAT, 11.2 kg/h) | also measured |
| --- | --- | --- | --- | --- | --- | --- | --- | --- | --- | --- | --- | --- | --- | --- | --- | --- | --- | --- | --- | --- | --- |
| CCOC(=O)CNCP(=O)(OC(C)C(=O)OCC)OC(C)C(=O)OCC (stereo not drawn) [Example 16, propanoic acid, 2,2'-[[[[(2-ethoxy-2-oxoethyl)amino]methyl]phosphinylidene]bis(oxy)]-bis-,diethyl ester] | 1 (25-49% control) | 1 (25-49% control) | 0 (0-24% control) | 0 (0-24% control) | 1 (25-49% control) | 1 (25-49% control) | 0 (0-24% control) | 0 (0-24% control) | 0 (0-24% control) | 0 (0-24% control) | 0 (0-24% control) | 0 (0-24% control) | 0 (0-24% control) | 0 (0-24% control) | 0 (0-24% control) | 1 (25-49% control) | 0 (0-24% control) | 1 (25-49% control) | 1 (25-49% control) | 0 (0-24% control) | post-emergent herbicidal activity index ([10]; 4 WAT, 5.6 kg/h): 1 (25-49% control); post-emergent herbicidal activity index ([11]; 4 WAT, 5.6 kg/h): 0 (0-24% control) |
| CCOC(=O)CNCP(=O)(OCCCl)OCCCl [Example 17, glycine, N-[[bis(2-chloroethoxy)phosphinyl]methyl]-, ethyl ester] |  | 0 (0-24% control) |  | 1 (25-49% control) |  | 1 (25-49% control) |  | 0 (0-24% control) |  | 1 (25-49% control) |  | 0 (0-24% control) |  | 1 (25-49% control) |  | 0 (0-24% control) |  | 0 (0-24% control) | 1 (25-49% control) | 0 (0-24% control) | post-emergent herbicidal activity index ([1]; 2 WAT, 5.6 kg/h): 0 (0-24% control); post-emergent herbicidal activity index ([2]; 2 WAT, 5.6 kg/h): 0 (0-24% control); post-emergent herbicidal activity index ([3]; 2 WAT, 5.6 kg/h): 0 (0-24% control); post-emergent herbicidal activity index ([4]; 2 WAT, 5.6 kg/h): 0 (0-24% control); post-emergent herbicidal activity index ([5]; 2 WAT, 5.6 kg/h): 0 (0-24% control); post-emergent herbicidal activity index ([6]; 2 WAT, 5.6 kg/h): 0 (0-24% control); post-emergent herbicidal activity index ([7]; 2 WAT, 5.6 kg/h): 0 (0-24% control); post-emergent herbicidal activity index ([8]; 2 WAT, 5.6 kg/h): 0 (0-24% control); post-emergent herbicidal activity index ([9]; 2 WAT, 5.6 kg/h): 0 (0-24% control); post-emergent herbicidal activity index ([10]; 2 WAT, 5.6 kg/h): 0 (0-24% control); post-emergent herbicidal activity index ([11]; 2 WAT, 5.6 kg/h): 0 (0-24% control) |
| CCOC(=O)CNCP(=O)(OC(C)C(=O)OC)OC(C)C(=O)OC (stereo not drawn) [Example 18] | 1 (25-49% control) | 2 (50-74% control) | 0 (0-24% control) | 0 (0-24% control) | 1 (25-49% control) | 2 (50-74% control) | 0 (0-24% control) | 0 (0-24% control) | 0 (0-24% control) | 0 (0-24% control) | 0 (0-24% control) | 3 (75-99% control) | 0 (0-24% control) | 0 (0-24% control) | 0 (0-24% control) | 2 (50-74% control) | 0 (0-24% control) | 0 (0-24% control) | 1 (25-49% control) | 1 (25-49% control) | post-emergent herbicidal activity index ([10]; 4 WAT, 5.6 kg/h): 1 (25-49% control); post-emergent herbicidal activity index ([11]; 4 WAT, 5.6 kg/h): 0 (0-24% control) |
| CCOC(=O)CNCP(=O)(OCCSC(=O)OCC)OCCSC(=O)OCC [Example 19, glycine, N-[[bis[2-[(ethoxycarbonyl)thio]ethoxy]-phosphinyl]methyl]-, ethyl ester] | 0 (0-24% control) | 1 (25-49% control) | 0 (0-24% control) | 1 (25-49% control) | 1 (25-49% control) | 2 (50-74% control) | 1 (25-49% control) | 2 (50-74% control) | 0 (0-24% control) | 0 (0-24% control) | 0 (0-24% control) | 1 (25-49% control) | 0 (0-24% control) | 0 (0-24% control) | 0 (0-24% control) | 0 (0-24% control) | 0 (0-24% control) | 2 (50-74% control) | 2 (50-74% control) | 2 (50-74% control) | post-emergent herbicidal activity index ([10]; 4 WAT, 5.6 kg/h): 2 (50-74% control); post-emergent herbicidal activity index ([11]; 4 WAT, 5.6 kg/h): 1 (25-49% control) |
| CCOC(=O)CNCP(=O)(OC1CCCSC1)OC1CCCSC1 (stereo not drawn) [Example 20, glycine, N-[[bis[(tetrahydro-2H-thiopyran-3-yl)-oxy]-phosphinyl]methyl]-, ethyl ester] |  | 0 (0-24% control) |  | 0 (0-24% control) |  | 1 (25-49% control) |  | 0 (0-24% control) |  | 1 (25-49% control) |  | 1 (25-49% control) |  | 1 (25-49% control) |  | 0 (0-24% control) |  | 0 (0-24% control) | 1 (25-49% control) | 0 (0-24% control) | post-emergent herbicidal activity index ([1]; 2 WAT, 5.6 kg/h): 0 (0-24% control); post-emergent herbicidal activity index ([2]; 2 WAT, 5.6 kg/h): 0 (0-24% control); post-emergent herbicidal activity index ([3]; 2 WAT, 5.6 kg/h): 0 (0-24% control); post-emergent herbicidal activity index ([4]; 2 WAT, 5.6 kg/h): 0 (0-24% control); post-emergent herbicidal activity index ([5]; 2 WAT, 5.6 kg/h): 0 (0-24% control); post-emergent herbicidal activity index ([6]; 2 WAT, 5.6 kg/h): 0 (0-24% control); post-emergent herbicidal activity index ([7]; 2 WAT, 5.6 kg/h): 0 (0-24% control); post-emergent herbicidal activity index ([8]; 2 WAT, 5.6 kg/h): 0 (0-24% control); post-emergent herbicidal activity index ([9]; 2 WAT, 5.6 kg/h): 0 (0-24% control); post-emergent herbicidal activity index ([10]; 2 WAT, 5.6 kg/h): 0 (0-24% control); post-emergent herbicidal activity index ([11]; 2 WAT, 5.6 kg/h): 0 (0-24% control) |
| CCOC(=O)CNCP(=O)(OCc1ccco1)OCc1ccco1 [Example 21, glycine, N-[[bis(2-furanylmethoxy)phosphinyl]methyl]-, ethyl ester] |  | 0 (0-24% control) |  | 0 (0-24% control) |  | 0 (0-24% control) |  | 0 (0-24% control) |  | 0 (0-24% control) |  | 0 (0-24% control) |  | 0 (0-24% control) |  | 0 (0-24% control) |  | 0 (0-24% control) | 1 (25-49% control) | 0 (0-24% control) | post-emergent herbicidal activity index ([1]; 4 WAT, 56.0 kg/h): 1 (25-49% control); post-emergent herbicidal activity index ([2]; 4 WAT, 56.0 kg/h): 1 (25-49% control); post-emergent herbicidal activity index ([3]; 4 WAT, 56.0 kg/h): 2 (50-74% control); post-emergent herbicidal activity index ([4]; 4 WAT, 56.0 kg/h): 3 (75-99% control); post-emergent herbicidal activity index ([5]; 4 WAT, 56.0 kg/h): 1 (25-49% control); post-emergent herbicidal activity index ([6]; 4 WAT, 56.0 kg/h): 0 (0-24% control); post-emergent herbicidal activity index ([7]; 4 WAT, 56.0 kg/h): 1 (25-49% control); post-emergent herbicidal activity index ([8]; 4 WAT, 56.0 kg/h): 1 (25-49% control); post-emergent herbicidal activity index ([9]; 4 WAT, 56.0 kg/h): 2 (50-74% control); post-emergent herbicidal activity index ([10]; 4 WAT, 56.0 kg/h): 2 (50-74% control); post-emergent herbicidal activity index ([11]; 4 WAT, 56.0 kg/h): 0 (0-24% control) |
